# Measured values reported in patent US9708359B2, “Pyrrolopyrimidine nucleosides and analogs thereof” (Chimerix, Inc., priority 2015, dated 2017).
# Where “and” joins values, the source holds several entries; their conditions need not be identical. Equal entries are not always repeated.
# Tested on: mouse norovirus
# Experiment: Mouse Norovirus (MNV) assay in RAW cells
# Details: murine norovirus
# [1] = Table 8, N/A = assayed but no EC50 value could be measured
SMILES,EC50 [1],further results
Cc1nc(N)c2c(C(N)=O)cn([C@@H]3O[C@H](COC(=O)[C@@H](N)C(C)C)[C@@H](O)[C@H]3O)c2n1 [Compound 2],–,EC50 (Table 7): 1.9 to 4.15 µM
Cc1nc(N)c2c(C(N)=O)cn([C@@H]3O[C@H](COC(=O)[C@H](C)N)[C@@H](O)[C@H]3O)c2n1 [Compound 3],–,EC50 (Table 7): 2 µM
CCCCCCCCCCCCCCCCOCCC(=O)OC[C@H]1O[C@@H](n2cc(C(N)=O)c3c(N)nc(C)nc32)[C@H](O)[C@@H]1O [Compound 4],–,EC50 (Table 7): 3.5 µM
Cc1nc(N)c2c(C(N)=O)cn([C@@H]3O[C@H](COC(=O)[C@@H](N)Cc4ccccc4)[C@@H](O)[C@H]3O)c2n1 [Compound 5],–,EC50 (Table 7): 2.2 µM
[2H][C@@]1(n2cc(C(N)=O)c3c(N)nc(C)nc32)O[C@H](CO)[C@@H](O)[C@H]1O [Compound 6],–,EC50 (Table 7): 3.08 µM
Cc1nc(O)c2c(C(N)=O)cn([C@@H]3O[C@H](CO)[C@@H](O)[C@H]3O)c2n1 [Compound 7],53.8 µM and 38.4 µM,"EC50 (Table 8, N/A = assayed but no EC50 value could be measured, listed as compound 7): > 38 µM"
Cc1nc(N)c2c(C(N)=O)cn([C@@H]3O[C@H](CO)[C@@H](O)[C@H]3O)c2[n+]1[O-] [Compound 8],23.6 µM,–
Cc1nc(N)c2c(C(N)=O)cn([C@@H]3O[C@H](CO)[C@@H](O)[C@@H]3O)c2n1 [Compound 9],50 µM,–
Cc1nc(N)c2c(-c3nn[nH]n3)cn([C@@H]3O[C@H](CO)[C@@H](O)[C@H]3O)c2n1 [Compound 10],61.5 µM,–
Cc1nc(N)c2c(C#N)cn([C@@H]3O[C@H](CO)[C@@H](O)[C@H]3O)c2n1 [Compound 11],> 121 µM,–
CCc1nc(N)c2c(C(N)=O)cn([C@@H]3O[C@H](CO)[C@@H](O)[C@H]3O)c2n1 [Compound 13],> 200 µM,–
Cc1nc(N)c2c(I)cn([C@@H]3O[C@H](CO)[C@@H](O)[C@H]3O)c2n1 [Compound 14],> 100 µM,–
NC(=O)c1cn([C@@H]2O[C@H](CO)[C@@H](O)[C@H]2O)c2nc(-c3ccccc3)nc(N)c12 [Compound 15],> 100 µM,–
NC(=S)c1cn([C@@H]2O[C@H](CO)[C@@H](O)[C@H]2O)c2nc(-c3ccccc3)nc(N)c12 [Compound 16],> 100 µM,–
N#Cc1cn([C@@H]2O[C@H](CO)[C@@H](O)[C@H]2O)c2nc(-c3ccccc3)nc(N)c12 [Compound 17],> 100 µM,–
Cc1nc(N)c2c(C(N)=O)cn([C@@H]3O[C@H](COCc4ccccc4)[C@@H](O)[C@H]3O)c2n1 [Compound 19],> 100 µM,–
Cc1nc(N)c2c(C(N)=O)cn([C@@H]3O[C@H](CO)[C@H]4OC(C)(C)O[C@H]43)c2n1 [Compound 20],> 20 µM,–
CCOP(=O)(COC[C@H]1O[C@@H](n2cc(C(N)=O)c3c(N)nc(C)nc32)[C@@H]2OC(C)(C)O[C@@H]21)OCC [Compound 21],> 100 µM,–
CCCCCCCCCCCCCCCOCCCOP(=O)(O)COC[C@H]1O[C@@H](n2cc(C(N)=O)c3c(N)nc(C)nc32)[C@@H]2OC(C)(C)O[C@@H]21 [Compound 22],> 100 µM,–
Cc1nc(N)c2c(C(N)=O)cn([C@@H]3O[C@H](COCP(=O)(O)O)[C@@H](O)[C@H]3O)c2n1 [Compound 23],> 100 µM,–
CCCCCCCCCCCCCCCCOCCCOP(=O)(O)COC[C@H]1O[C@@H](n2cc(C(N)=O)c3c(N)nc(C)nc32)[C@H](O)[C@@H]1O [Compound 24],> 20 µM,–
CCOP(=O)(COC[C@H]1O[C@@H](n2cc(C(N)=O)c3c(N)nc(C)nc32)[C@H](O)[C@@H]1O)OCC [Compound 25],> 100 µM,–
NC(=O)c1cn([C@@H]2O[C@H](CO)[C@@H](O)[C@H]2O)c2nc(C(F)(F)F)nc(N)c12 [Compound 26],> 100 µM,–
Cc1nc(Cl)c2c(C#N)cn([C@@H]3O[C@H](CO)[C@@H](O)[C@H]3O)c2n1 [Compound 29],> 100 µM,–

SMILES,EC50 [1],further results
COc1nc(C)nc2c1c(C#N)cn2[C@@H]1O[C@H](CO)[C@@H](O)[C@H]1O [Compound 30],> 100 µM,–
Cc1nc(O)c2c(C#N)cn([C@@H]3O[C@H](CO)[C@@H](O)[C@H]3O)c2n1 [Compound 31],> 100 µM,–
Cc1nc(N)c2c(C(N)=O)c[nH]c2n1 [Compound 32],> 100 µM,–
Cc1nc(N)c2c(C(=O)O)cn([C@@H]3O[C@H](COCc4ccccc4)[C@@H](O)[C@H]3O)c2n1 [Compound 33],> 100 µM,–
Cc1ncc2c(C(=O)O)cn([C@@H]3O[C@H](CO)[C@@H](O)[C@H]3O)c2n1 [Compound 34],> 100 µM,–
Cc1ncc2c(C(N)=O)cn([C@@H]3O[C@H](CO)[C@@H](O)[C@H]3O)c2n1 [Compound 35],> 100 µM,–
CNc1nc(C)nc2c1c(C(N)=O)cn2[C@@H]1O[C@H](CO)[C@@H](O)[C@H]1O [Compound 36],> 100 µM,–
Cc1nc(N(C)C)c2c(C(N)=O)cn([C@@H]3O[C@H](CO)[C@@H](O)[C@H]3O)c2n1 [Compound 37],> 100 µM,–
Cc1nc(N)c2c(C(N)=O)cn([C@@H]3O[C@H](CO)[C@@H](O)[C@H]3O)c2n1 [Compound 38],> 100 µM,–
CNC(=O)c1cn([C@@H]2O[C@H](CO)[C@@H](O)[C@H]2O)c2nc(C)nc(N)c12 [Compound 39],> 100 µM,–
Cc1nc(N)c2c(C(N)=O)cn([C@@H]3O[C@H](CO)[C@@H](O)C3(F)F)c2n1 [Compound 40],> 100 µM,–
Cc1nc(N)c2c(C(=O)N(C)C)cn([C@@H]3O[C@H](CO)[C@@H](O)[C@H]3O)c2n1 [Compound 41],> 100 µM,–
COc1nc(C)nc2c1c(I)cn2[C@@H]1O[C@H](CO)[C@@H](O)[C@H]1O [Compound 42],> 100 µM,–
CSc1nc(C)nc2c1c(I)cn2[C@@H]1O[C@H](CO)[C@@H](O)[C@H]1O [Compound 43],> 100 µM,–
Cc1nc(N)c2c(C(N)=O)c(Br)n([C@@H]3O[C@H](CO)[C@@H](O)[C@H]3O)c2n1 [Compound 44],> 100 µM,–
COC(=O)c1c[nH]c2nc(C)nc(Cl)c12 [Compound 45],> 100 µM,–
Cc1nc(N)c2cc[nH]c2n1 [Compound 46],> 100 µM,–
COc1nc(C)nc2c1c(CN)cn2[C@@H]1O[C@H](CO)[C@@H](O)[C@H]1O [Compound 47],> 100 µM,–
Cc1nc(N)c2ccn([C@@H]3O[C@H](CO)[C@@H](O)[C@H]3O)c2n1 [Compound 48],> 100 µM,–
Cc1nc(N)c2c(C(N)=O)cn(C[C@H](O)CO)c2n1 [Compound 50],> 100 µM,–
Cc1nc(N)c2c(C(N)=O)cn(C[C@H](C)O)c2n1 [Compound 51],> 100 µM,–
Cc1nc(N)c2c(C(N)=O)cn(C[C@@H](CO)OCP(=O)(O)O)c2n1 [Compound 52],> 100 µM,–
CCOP(=O)(CO[C@H](CO)Cn1cc(C(N)=O)c2c(N)nc(C)nc21)OCC [Compound 53],> 100 µM,–
Cc1nc(N)c2ccn(C[C@H](C)O)c2n1 [Compound 54],> 100 µM,–

SMILES,EC50 [1],further results
CCCCCCCCCCCCCCCCOCCCOP(=O)(O)CO[C@H](CO)Cn1cc(C(N)=O)c2c(N)nc(C)nc21 [Compound 56],75.3 µM,–
Cc1nc(N)c2c(C(N)=O)cn([C@@H]3O[C@H](CO)[C@@H](O)[C@H]3N=[N+]=[N-])c2n1 [Compound 57],> 100 µM,–
CCOP(=O)(CO[C@H](C)Cn1cc(C(N)=O)c2c(N)nc(C)nc21)OCC [Compound 58],> 100 µM,–
Cc1nc(N)c2c(C(N)=O)cn(C[C@@H](C)OCP(=O)(O)O)c2n1 [Compound 59],> 100 µM,–
COc1nc(C)nc2c1c(C(N)=O)cn2[C@@H]1O[C@H](COC(=O)[C@@H](NC(=O)OC(C)(C)C)C(C)C)[C@@H](O)[C@@]1(C)O [Compound 61],> 100 µM,–
Cc1nc(N)c2c(C(N)=O)cn(C3(C)O[C@H](COC(=O)[C@@H](N)C(C)C)[C@@H](O)[C@H]3O)c2n1 (stereo partly drawn) [Compound 62],> 100 µM,–
Cc1nc(N)c2c(C(N)=O)cn([C@@H]3O[C@H](COC(=O)[C@@H](NC(=O)OCC4C5C=CC=CC5C5C=CC=CC54)C(C)C)[C@@H](O)[C@H]3O)c2n1 (stereo partly drawn) [Compound 63],> 100 µM,–
CCOP(=O)(COC(CO)Cn1cc(C(N)=O)c2c(N)nc(C)nc21)OCC (stereo not drawn) [Compound 64],> 100 µM,–
COc1ccc2cc([C@@H](C)C(=O)OC[C@H]3O[C@@H](n4cc(C(N)=O)c5c(N)nc(C)nc54)[C@@H]4OC(C)(C)O[C@@H]43)ccc2c1 [Compound 65],> 100 µM,–
CCOP(=O)(COC[C@@H]1C=C[C@H](n2cc(C(N)=O)c3c(N)nc(C)nc32)O1)OCC [Compound 67],> 100 µM,–
CCOP(=O)(CO[C@H]1O[C@@H](n2cc(C#N)c3c(N)nc(C)nc32)[C@H](O)[C@@H]1O)OCC [Compound 68],> 100 µM,–
Cc1nc(N)c2c(C(N)=O)cn([C@@H]3O[C@H](OCP(=O)(O)O)[C@@H](O)[C@H]3O)c2n1 [Compound 70],> 100 µM,–
Cc1nc(N)c2c(C(N)=O)cn([C@@H]3O[C@H](COP(=O)(O)O)[C@@H](O)[C@H]3O)c2n1 [Compound 71],–,EC50 (Table 7): 3.15 µM
CCOP(=O)(CO[C@H]1O[C@@H](n2cc(C(N)=O)c3c(N)nc(C)nc32)[C@H](O)[C@@H]1O)OCC [Compound 73],> 100 µM,–
CCOP(=O)(C[C@H]1O[C@@H](n2cc(C(N)=O)c3c(N)nc(C)nc32)[C@H](O)[C@@H]1O)OCC [Compound 74],> 100 µM,–
Cc1nc(N)c2c(C(N)=O)cn([C@@H]3O[C@H](CP(=O)(O)O)[C@@H](O)[C@H]3O)c2n1 [Compound 75],> 100 µM,–
Cc1nc(N)c2c(C(N)=O)cn([C@@H]3O[C@H](COC(=O)[C@H](CC(C)C)NC(=O)OCC4c5ccccc5-c5ccccc54)[C@@H](O)[C@H]3O)c2n1 [Compound 76],–,EC50 (Table 7): 16.4 µM
Cc1nc(N)c2c(C(N)=O)cn([C@@H]3O[C@H](COC(=O)[C@@H](N)CC(C)C)[C@@H](O)[C@H]3O)c2n1 [Compound 77],–,EC50 (Table 7): 4.4 µM
Cc1nc(N)c2c(C(N)=O)cn([C@@H]3O[C@@H]4OCP(=O)(O)O[C@H]4[C@H]3O)c2n1 [Compound 78],> 100 µM,–
CCCCCCCCCCCCCCCCOCCCOP(=O)(O)OC[C@H]1O[C@@H](n2cc(C(N)=O)c3c(N)nc(C)nc32)[C@H](O)[C@@H]1O [Compound 79],> 100 µM,–
Cc1nc(N)c2ccn([C@@H]3O[C@H](COCc4ccccc4)[C@@H](O)[C@H]3O)c2n1 [Compound 82],> 100 µM,–
NC(=O)c1cn([C@@H]2O[C@H](CO)[C@@H](O)[C@H]2O)c2nc(N)nc(N)c12 [Compound 83],> 100 µM,–
Cc1nc(N)c2c(S(=O)(=O)O)cn([C@@H]3O[C@H](CO)[C@@H](O)[C@H]3O)c2n1 [Compound 84],> 100 µM,–
